Values after ≈ are worked out from the molar mass of the structure shown. Counter-ions that a name gives are not always drawn.
What was measured:
C. freundii 1R527 = assay: MIC; conditions: Citrobacter freundii, 1R527
P. aeruginosa 5D58-1 = assay: MIC; conditions: Pseudomonas aeruginosa, 5D581, P. aeruginosa 5D58-1
E. cloacae 5D52-2 = assay: MIC; conditions: Enterobacter cloacae, 5D522
E. cloacae 1V25 = assay: MIC; conditions: Enterobacter cloacae
E. coli GN5482 = assay: MIC; conditions: Escherichia coli, GN5482, E. coli GN5482
P. aeruginosa GN10362 = assay: MIC; conditions: Pseudomonas aeruginosa, GN10362
P. maltophilia OF247 = assay: MIC; conditions: Stenotrophomonas maltophilia
S. aureus Smith = assay: MIC; conditions: Staphylococcus aureus
S. aureus IAA498 = assay: MIC; format: cell-based; conditions: Staphylococcus aureus
Experimental: (§1) The minimum inhibition concentrations (MIC) of the compounds obtained in the respective examples described above were measured according to the standard method of Japanese Chemotherapy Association.

E. cloacae 1V247 = assay: MIC; format: cell-based; conditions: Enterobacter cloacae, Table 8
Experimental: as §1

C. freundii 1U692 = assay: MIC; conditions: Citrobacter freundii, 1U692
E. cloacae 908RN = assay: MIC; conditions: Enterobacter cloacae
P. cepacia OF189 = assay: MIC; conditions: Burkholderia cepacia, OF189, P. cepacia OF189
P. vulgaris GN7919 = assay: MIC; conditions: Proteus vulgaris, GN7919
E. colacae GN7471 = assay: MIC
S. marcescens GN10857 = assay: MIC; conditions: Serratia marcescens, GN10857, S. marcescens GN10857
P. aeruginosa 4au542 = assay: MIC; conditions: Pseudomonas aeruginosa, 4AU542, P. aeruginosa 4au542
C. freundii 1U589 = assay: MIC; conditions: Citrobacter freundii, 1U589
C. freundii 5D60-1 = assay: MIC; conditions: Citrobacter freundii, 5D601
C. freundii 1R523 = assay: MIC; conditions: Citrobacter freundii, 1R523
C. freundii 1R526 = assay: MIC; conditions: Citrobacter freundii, 1R526
E. coli ML4707 = assay: MIC; conditions: Escherichia coli, ML4707, E. coli ML4707
E. cloacae 5D63-2 = assay: MIC; conditions: Enterobacter cloacae, 5D632
K. pneumoniae 4at521 = assay: MIC; conditions: Klebsiella pneumoniae, 4AT521
C. freundii GN7391 = assay: MIC; conditions: Citrobacter freundii, GN7391, C. freundii GN7391
C. freundii 1R524 = assay: MIC; conditions: Citrobacter freundii, 1R524
E. cloacae 1Y247 = assay: MIC; format: cell-based; conditions: Enterobacter cloacae, Table 6, read-out: MIC
Experimental: as §1

in vivo = assay: in vivo; parameters: species or system Macaco; conditions: monkey, 20 mg/kg
Experimental: Each of 20 mg/kg of the compounds obtained in Example 2, Example 25 and Example 28 was administered parenterally to Macaco and the half-time in blood was measured.
The concentrations of the compounds were measured according to HPLC method. Novapack C18 or Microbondapack C18 (trade name, produced by Waters Co.) was used as a column. Further, cefpiramide was used as a control drug.

Row | Compound | MIC (C. freundii 1R527) [µg/mL] | MIC (P. aeruginosa 5D58-1; Table 7) [µg/mL] | MIC (E. cloacae 5D52-2) [µg/mL] | MIC (E. cloacae 1V25) [µg/mL] | MIC (E. coli GN5482; Table 7) [ng/mL] | MIC (P. aeruginosa GN10362) [µg/mL] | MIC (P. maltophilia OF247; Table 7) [µg/mL] | MIC (S. aureus Smith; Table 7) [µg/mL] | MIC (S. aureus IAA498; Table 7) [µg/mL] | MIC (E. cloacae 1V247) [µg/mL] | MIC (C. freundii 1U692) [µg/mL] | MIC (E. cloacae 908RN; E. colacae 908RN, Table 7) [µg/mL] | MIC (P. vulgaris GN7919) [µg/mL] | MIC (C. freundii 1U589) [µg/mL] | MIC (C. freundii 5D60-1) [µg/mL] | MIC (C. freundii 1R523) [µg/mL] | MIC (C. freundii 1R526) [µg/mL] | MIC (E. cloacae 5D63-2) [µg/mL] | MIC (K. pneumoniae 4at521) [µg/mL] | MIC (C. freundii 1R524) [µg/mL] | other results
1 | Cc1cc(SCC2=C(C(=O)O)N3C(=O)C(NC(=O)C(=NOC(C)(C)C(=O)NNC(=O)c4ccc(O)c(O)c4)c4csc(N)n4)[C@H]3SC2)n2nc(C)cc2n1 (stereo partly drawn) [Example 57, 7-{2-[2-Amino-1,3-thiazol-4-yl]-2-[1-(3-(3,4-dihydroxybenzoyl)carbazoyl)-1-methylethoxyimino]acetamido}-3-[(2,5-dimethylpyrazolo[1,5-a]pyrimidin-7yl)thiomethyl]-3-cephem-4-carboxylic acid] | 3.13 (≈ 3.93 µM) | 0.1 (≈ 0.125 µM) | 0.1 (≈ 0.125 µM) | 6.25 (≈ 7.84 µM) | < 6 | 0.1 (≈ 0.125 µM) | 1.56 (≈ 1.96 µM) | 1.56 (≈ 1.96 µM) | 3.13 (≈ 3.93 µM) | 6.25 (≈ 7.84 µM) | 1.56 (≈ 1.96 µM) | 0.39 (≈ 0.489 µM) | 0.78 (≈ 0.979 µM) | 3.13 (≈ 3.93 µM) | 1.56 (≈ 1.96 µM) | 0.2 (≈ 0.251 µM) | 1.56 (≈ 1.96 µM) | 0.39 (≈ 0.489 µM) | 0.012 (≈ 0.0151 µM) | 0.2 (≈ 0.251 µM) | MIC (P. cepacia OF189; Table 7): 0.012 µg/mL (≈ 0.0151 µM); MIC (E. colacae GN7471; Table 7): 1.56 µg/mL (≈ 1.96 µM); MIC (S. marcescens GN10857; Table 7): 1.56 µg/mL (≈ 1.96 µM); MIC (P. aeruginosa 4au542; Table 7): 0.1 µg/mL (≈ 0.125 µM); MIC (E. coli ML4707; Table 7): < 6 ng/mL; MIC (C. freundii GN7391; Table 7): 3.13 µg/mL (≈ 3.93 µM)
2 | Cc1cc(SCC2=C(C(=O)O)N3C(=O)C(NC(=O)C(=NOC(C)(C)C(=O)NNC(=O)c4ccc(O)c(O)c4)c4csc(N)n4)C3SC2)n2ncc(C(=O)O)c2n1 (stereo not drawn) [Example 25, 7-{2-[2-amino-1,3-thiazol-4-yl]-2-[1-(3-(3,4-dihydroxybenzoyl)carbazoyl)-1-methylethoxyimino]acetamide}-3-[(3-carboxy-5-methylpyrazolo[1,5-a]pyrimidin-7-yl)thiomethyl]-3-cephem-4-carboxylic acid.hydrochloride] | 0.1 |  | 0.39 | 6.25 |  | 0.025 |  |  |  |  | 0.39 |  | 0.39 | 0.39 | 0.78 | 0.2 | 0.2 | 0.39 | < 0.006 | 0.1 | MIC (P. aeruginosa 5D58-1; Table 5): 0.05 µg/mL; MIC (E. coli GN5482; Table 5): < 6 ng/mL; MIC (P. maltophilia OF247; Table 5): 0.1 µg/mL; MIC (S. aureus Smith; Table 5): 6.25 µg/mL; MIC (E. cloacae 1Y247): 12.5 µg/mL; MIC (S. aureus IAA498; Table 5): 12.5 µg/mL; MIC (E. cloacae 908RN; E. cloacae 908RN, Table 6): 3.13 µg/mL; MIC (E. cloacae 908RN; E. colacae 908RN, Table 5): 1.56 µg/mL; MIC (P. cepacia OF189; Table 5): < 0.006 µg/mL; MIC (E. colacae GN7471; Table 5): 3.13 µg/mL; half-life (in vivo): 240 min; MIC (S. marcescens GN10857; Table 5): 0.1 µg/mL; MIC (P. aeruginosa 4au542; Table 5): 0.1 µg/mL; MIC (E. coli ML4707; Table 5): < 6 ng/mL; MIC (C. freundii GN7391; Table 5): 6.25 µg/mL; MIC (C. freundii GN7391; Table 6): 6.25 µg/mL
3 | CC(=O)Oc1ccc(C(=O)NNC(=O)C(C)(C)ON=C(C(=O)NC2C(=O)N3C(C(=O)O)=C(CSc4c(C)c(C)nc5c(C(=O)O)cnn45)CS[C@H]23)c2csc(N)n2)cc1OC(C)=O (stereo partly drawn) [Example 47, 7-{2-[2-Amino-1,3-thiazol-4-yl]-2-[1-(3-(3,4-diacetoxybenzoyl)carbazoyl)-1-methylethoxyimino]acetamido}-3-[(3-carboxy-5,6-dimethylpyrazolo[1,5-a]pyrimidin-7-yl)thiomethyl]-3-cephem-4-carboxylic acid] | 0.78 (≈ 0.843 µM) | 0.39 (≈ 0.422 µM) | 0.2 (≈ 0.216 µM) | 3.13 (≈ 3.38 µM) | 25 (≈ 0.027 µM) | 0.39 (≈ 0.422 µM) | 0.78 (≈ 0.843 µM) | 25 (≈ 27 µM) | 50 (≈ 54.1 µM) | 3.13 (≈ 3.38 µM) | 0.39 (≈ 0.422 µM) | 0.78 (≈ 0.843 µM) | 6.26 (≈ 6.77 µM) | 1.56 (≈ 1.69 µM) | 0.78 (≈ 0.843 µM) | 0.39 (≈ 0.422 µM) | 0.39 (≈ 0.422 µM) | 0.39 (≈ 0.422 µM) | 0.025 (≈ 0.027 µM) | 0.39 (≈ 0.422 µM) | MIC (P. cepacia OF189; Table 7): < 0.006 µg/mL; MIC (E. colacae GN7471; Table 7): 0.39 µg/mL (≈ 0.422 µM); MIC (S. marcescens GN10857; Table 7): 0.39 µg/mL (≈ 0.422 µM); MIC (P. aeruginosa 4au542; Table 7): 0.78 µg/mL (≈ 0.843 µM); MIC (E. coli ML4707; Table 7): 25 ng/mL (≈ 0.027 µM); MIC (C. freundii GN7391; Table 7): 1.56 µg/mL (≈ 1.69 µM)
4 | Cc1cc(SCC2=C(C(=O)O)N3C(=O)C(NC(=O)C(=NOC(C)(C)C(=O)NNC(=O)c4ccc(O)c(O)c4)c4csc(N)n4)[C@H]3SC2)n2nccc2n1 (stereo partly drawn) [Example 58, 7-{2-[2-Amino-1,3-thiazol-4-yl]-2-[1-(3-(3,4-dihydroxybenzoyl)carbazoyl)-1-methylethoxyimino]acetamido}-3-[(5-methylpyrazolo[1,5-a]pyrimidin-7-yl)thiomethyl]-3-cephem-4-carboxylic acid] | 1.56 (≈ 1.99 µM) | 0.05 (≈ 0.0639 µM) | 0.1 (≈ 0.128 µM) | 6.25 (≈ 7.98 µM) | < 6 | 0.1 (≈ 0.128 µM) | 1.56 (≈ 1.99 µM) | 1.56 (≈ 1.99 µM) | 3.13 (≈ 4 µM) | 6.25 (≈ 7.98 µM) | 1.56 (≈ 1.99 µM) | 0.39 (≈ 0.498 µM) | 1.56 (≈ 1.99 µM) | 3.13 (≈ 4 µM) | 1.56 (≈ 1.99 µM) | 0.39 (≈ 0.498 µM) | 3.13 (≈ 4 µM) | 0.39 (≈ 0.498 µM) | 0.012 (≈ 0.0153 µM) | 0.39 (≈ 0.498 µM) | MIC (P. cepacia OF189; Table 7): 0.012 µg/mL (≈ 0.0153 µM); MIC (E. colacae GN7471; Table 7): 1.56 µg/mL (≈ 1.99 µM); MIC (S. marcescens GN10857; Table 7): 1.56 µg/mL (≈ 1.99 µM); MIC (P. aeruginosa 4au542; Table 7): 0.2 µg/mL (≈ 0.255 µM); MIC (E. coli ML4707; Table 7): < 6 ng/mL; MIC (C. freundii GN7391; Table 7): 3.13 µg/mL (≈ 4 µM)
5 | Cc1cc(O)c(C(=O)N[C@@H](C(=O)N[C@@H]2C(=O)N3C(C(=O)O)=C(CSc4nnnn4C)CS[C@H]23)c2ccc(O)cc2)cn1 [Cefpiramide, cefpiramide, reference compound] |  |  |  |  |  |  |  |  |  |  |  |  |  |  |  |  |  |  |  |  | half-life (in vivo): 150 min

Reference: patent US4966900A, “Cephalosporin β-lactam compound and medicinal composition” (priority 1986, dated 1990)
